Data: patent publication US6413948B1, “Pharmaceutical compositions and methods of effecting a neuronal activity in an animal using naaladase inhibitors” (Guilford Pharmaceuticals Inc., priority 1996, dated 2002)

Assays:
[1] = tested on: Sprague-Dawley rats, 2 hour transient middle cerebral artery occlusion (MCAO); test: In vivo assay on brain injury following MCAO in Sprague-Dawley rats; details: 100 mg/kg IP then 20 mg/kg/hr IV for 4 hours
Method: In the control group (n=8), the rats received an IP injection of saline 30 minutes post-occlusion followed by IV saline infusion at a rate of 0.5 ml/hr. […] There was a 15 minute delay between IP and IV treatments for each rat. Twenty two hours following the reperfusion, the rats were euthanized and their brains were removed. Seven coronal sections (2 mm thick) were taken and stained with 1% solution of 2,3,5-triphenyltetraxolium chloride (TTC) for 20 minutes and then fixed in 10% formalin. The anterior and posterior surface of the most rostral brain section and the posterior surface of each of the other 6 sections were imaged. The quantification of infarct size of each brain was obtained using a computer aided-digital imaging analysis system (LOATS). The brain regions completely lacking TTC-staining were characterized as representative of infarcted tissue. The total infarct volume for each rat was calculated by numeric integration of the respective sequential brain areas.
Male Sprague-Dawley rats (260-320 g) were used. Prior to the experiment, the rats were individually housed and allowed free access to food and water. Each rat received two surgeries: jugular vein cannulation for IV infusion and MCAO. During surgeries, the rat was anesthetized with […] delivered in oxygen via an inhalation mask. The body temperature was monitored and regulated at normothermic level using a homeothermic heating system. First, a PE-50 polyethylene catheter was inserted into the right jugular vein. One hour later, the rat was reanesthetized for MCAO surgery. The MCAO was achieved using the endovascular suture method described by Long et al., Stroke, Vol. 20, pp. 84-91 (1989). Specifically, the right external carotid artery (ECA) was exposed, coagulated and transected. A 3-0 monofilament nylon suture with a blunted tip was introduced into the proximal stump of the ECA via an arteriotomy and advanced 20 mm from the carotid bifurcation until it lodged in the proximal region of the anterior cerebral artery, thereby occluding the origin of the MCA. The rats were allowed to wake up; 2 hours later, the rats were reanesthetized for reperfusion, during which the nylon suture was retracted to the stump of the ECA allowing blood recirculation to the MCA.

[2] = tested on: cortical cell cultures; test: In vitro assay of NAALADase inhibitors on ischemia (potassium cyanide and 2-deoxyglucose, LDH release); format: cell-based, rats
Method: The methods for this assay are described in detail below.
Dissociated cortical cell cultures are prepared using the papain-dissociation method of Heuttner and Baughman (1986) as modified by Murphy and Baraban (1990). […] Fetuses of embryonic day 17 are removed from timed pregnancy rats (Harlan Sprague Dawley). The cortex is rapidly dissected out in Dulbecco's phosphate-buffered saline, stripped of meninges, and incubated in a papain solution for 15 minutes at 37° C. The tissue is then mechanically triturated and pelleted at 500 g (1000-2000 rpm on swinging bucket Beckman). The pellet is resuspended in a DNAase solution, triturated with a 10 ml pipette ×15-20, layered over a “10×10” solution containing albumin and trypsin inhibitor (see TABLE VII for an example of a “10×10” solution), repelleted, and resuspended in a plating medium containing 10% fetal bovine serum (HyClone A-1111-L), 5% heat-inactivated Equine serum (HyClone A-3311-L), and 84% modified Earle's basal medium (MEM) (Gibco 51200-020) with high glucose (4.5 g/L), and 1 g/L NaHCO3. Each 24-well plate is pretreated with poly-D-lysine (0.5 ml/well of 10 μg/ml) for 1 h and rinsed with water before plating. Cultures are plated at 2.5×10^6 cells/ml with each well of a 24 well plate receiving 500 μl/well. Alternatively, 35 mm dishes can be plated at 2 ml/dish, 6 well plates at 2 ml/well, or 12 well plates at 1 ml/well. After plating, 50% of the medium is changed every 3-4 days with growth serum containing 5% heat-inactivated Equine serum (HyClone A3111-L), 95% modified Earle's basal medium (MEM)(Gibco 51200-020), and 1% L-Glutamine (Gibco 25030-081). Experiments are performed after 21 days in cultures. Cultures are maintained in a 5% CO2 atmosphere at 37° C.
Twenty-one to twenty-four days following the initial cortical cell plating, the experiment is performed. The cultures are washed three times in HEPES buffered saline solution containing no phosphate. […] At the end of 24 hours, the cultures are analyzed for release of the cytosolic enzyme lactate dehydrogenase (LDH), a standard measure of cell lysis. LDH measurements are performed according to the method of Koh and Choi, J. Neuroscience Methods (1987).

[3] = tested on: mouse sciatic nerve following cryolesion; test: In vivo assay on myelin formation following sciatic nerve cryolesion; design: species or system mice; details: silicone implants, approximately 2.5 μg/day, 15 days after surgery
Method: Cryolesion of the mouse sciatic nerve was performed according to Koenig et al., Science, Vol. 268, pp. 1500-1503 (June 1995). In brief, each mouse was anesthetized and its sciatic nerve was exposed in the upper thigh and cryolesioned using a copper cryode (diameter=0.5 mm) that was dipped in liquid nitrogen and repeatedly applied to the upper part of the nerve. The extent of the lesion was approximately 1 mm.
Fifteen days after surgery, the mice were sacrificed and their sciatic nerve segments were collected and processed for light microscopy and TEM analysis. Randomly chosen fields 2-3 mm distal to the lesion were qualitatively analyzed by light microscopy using 1-micrometer-thick toluidine blue stained cross sections and photographic images were captured.

[4] = tested on: cortical cell cultures; test: In vitro assay of NAALADase inhibitors on toxicity of NAAG; format: cell-based, rats; details: inhibitor 1 μM
Method: Dissociated cortical cell cultures are prepared using the papain-dissociation method of Heuttner and Baughman (1986) as modified by Murphy and Baraban (1990). See TABLE VII for the Dissociated Culture Protocol as used herein. Fetuses of embryonic day 17 are removed from timed pregnancy rats (Harlan Sprague Dawley). The cortex is rapidly dissected out in Dulbecco's phosphate-buffered saline, stripped of meninges, and incubated in a papain solution for 15 minutes at 37° C. The tissue is then mechanically triturated and pelleted at 500 g (1000-2000 rpm on swinging bucket Beckman). The pellet is resuspended in a DNAase solution, triturated with a 10 ml pipette ×15-20, layered over a “10×10” solution containing albumin and trypsin inhibitor (see TABLE VII for an example of a “10×10” solution), repelleted, and resuspended in a plating medium containing 10% fetal bovine serum (HyClone A-1111-L), 5% heat-inactivated Equine serum (HyClone A-3311-L), and […] modified Earle's basal medium (MEM) (Gibco 51200-020) with high glucose (4.5 g/L), and 1 g/L NaHCO3. Each 24-well plate is pretreated with poly-D-lysine (0.5 ml/well of 10 μg/ml) for 1 h and rinsed with water before plating. Cultures are plated at 2.5×10^6 cells/ml with each well of a 24 well plate receiving 500 μl/well. Alternatively, 35 mm dishes can be plated at 2 ml/dish, 6 well plates at 2 ml/well, or 12 well plates at 1 ml/well. After plating, 50% of the medium is changed every 3-4 days with growth serum containing 5% heat-inactivated Equine serum (HyClone A3111-L), 95% modified Earle's basal medium (MEM)(Gibco 51200-020), and 1% L-Glutamine (Gibco 25030-081). Experiments are performed after 21 days in cultures. Cultures are maintained in a 5% CO2 atmosphere at 37° C. These methodologies are described in further detail below in the TABLE VII.
At the end of exposure, the cells are washed once with HEPES buffered saline solution and then replaced with serum free modified Earle's basal medium. The cultures are then returned to the CO2 incubator for 24 hour recovery.
Release of the cytosolic enzyme lactate dehydrogenase (LDH), a standard measure of cell lysis, is used to quantify injury (Koh and Choi, 1987). LDH-activity measurements are normalized to control for variability between culture preparations (Koh and Choi, 1987). […] This control measurement is subtracted from each experimental point. […] Only main effects of NAALADase inhibitors are considered; interactions between dose and condition are not examined statistically.

[5] = tested on: MPTP lesioned mice; test: In vivo assay on Parkinson's Disease (MPTP lesioned mice, TH immunostaining); design: species or system CD1 white mice
Method: MPTP lesioning of dopaminergic neurons in mice was used as an animal model of Parkinson's Disease, as described by Steiner, Proc. Natl. Acad. Sci., Vol. 94, pp. 2019-2024 (March 1997). In brief, four week old male CD1 white mice were dosed IP with 30 mg/kg of MPTP for 5 days. […] At 18 days following MPTP treatment, the mice were sacrificed and their brains were removed and sectioned. Immunostaining was performed on saggital and coronal brain sections using anti-tyrosine hydroxylase (TH) antibodies to quantitate survival and recovery of dopaminergic neurons.

O=C(O)CCC(CP(=O)(O)O)C(=O)O (centres unmarked) [2-(phosphonomethyl)pentanedioic acid]
mean total brain infarct volume ([1]; 20 minute pre-treatment): 122±26 mm^3 | mean total brain infarct volume ([1]; 30 minute post-treatment): 208±40 mm^3 | mean total brain infarct volume ([1]; 60 minute post-treatment): 125±57 mm^3 | mean total brain infarct volume ([1]; 120 minute post-treatment): 133±35 mm^3 | % Toxicity ([2]; ischemic insult, 100 pM): 66.57 ± 4.38 (n = 5) % | % Toxicity ([2]; ischemic insult, 1 nM): 42.31 ± 9.34 (n = 5) % | % Toxicity ([2]; ischemic insult, 10 nM): 33.08 ± 9.62 (n = 5) % | % Toxicity ([2]; ischemic insult, 100 nM): 30.23 ± 9.43 (n = 5) % | % Toxicity ([2]; ischemic insult, 1 μM): 8.56 ± 8.22 (n = 5) % | % Toxicity ([2]; time of administration: Delayed 30 Minutes): 31.49% | % Toxicity ([2]; time of administration: Exposure & Recovery): 2.54% | % Toxicity ([2]; time of administration: Recovery Only): 9.03% | # of myelinated lamellae (ave. + SEM) [3]: 16.53 ± 0.65 | % increase of myelinated lamellae over vehicle [3]: 20% | % Toxicity ([4]; NAAG 3 μM): −4.71 (n = 1) % | % Toxicity ([4]; NAAG 10 μM): −3.08 ± 0.81 (n = 3) % | % Toxicity ([4]; NAAG 30 μM): −4.81 ± 1.13 (n = 3) % | % Toxicity ([4]; NAAG 100 μM): −2.87 ± 0.78 (n = 3) % | % Toxicity ([4]; NAAG 300 μM): −2.09 ± 0.48 (n = 3) % | % Toxicity ([4]; NAAG 1 mM): 0.26 ± 1.11 (n = 3) % | % Toxicity ([4]; NAAG 3 mM): 16.83 ± 8.76 (n = 3) % | Percent Strial TH Innervation Density (mean ± SEM) ([5]; MPTP 30 mg/kg IP for 5 days plus compound 10 mg/kg SC): 16.28 ± 0.98% | recovery of TH-stained dopaminergic neurons (in words) ([5]; lesioned mice, 10 mg/kg, p<0.001): significant recovery
